In PubChem BioAssay (NCI):
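Compound exposure: 48 hours, 5 concentrations, 96-well plates. At the TGI there is no net growth.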

Tests used:
Experiment in all cases: inhibition of tumour cell growth, NCI panel, 48 h
SF-539 CNS = system: SF-539 CNS
A549 NSCLC = system: A549 NSCLC
COLO 205 colon = system: COLO 205 colon
OVCAR-4 ovarian = system: OVCAR-4 ovarian
MDA-MB-435 = system: MDA-MB-435
MALME-3M melanoma = system: MALME-3M melanoma
SF-295 CNS = system: SF-295 CNS
HCC-2998 colon = system: HCC-2998 colon
CCRF-CEM leukemia = system: CCRF-CEM leukemia
OVCAR-8 ovarian = system: OVCAR-8 ovarian
MOLT-4 leukemia = system: MOLT-4 leukemia
EKVX NSCLC = system: EKVX NSCLC
SF-268 CNS = system: SF-268 CNS
HCT-116 colon = system: HCT-116 colon
KM12 colon = system: KM12 colon
MDA-MB-231 breast = system: MDA-MB-231 breast
NCI/ADR-RES ovarian = system: NCI/ADR-RES ovarian
PC-3 prostate = system: PC-3 prostate
NCI-H522 lung = system: NCI-H522 lung
ACHN renal = system: ACHN renal
UACC-257 melanoma = system: UACC-257 melanoma
HS 578T breast = system: HS 578T breast
786-0 renal = system: 786-0 renal
SNB-75 CNS = system: SNB-75 CNS
NCI-H226 lung = system: NCI-H226 lung
HOP-92 NSCLC = system: HOP-92 NSCLC
SK-MEL-5 melanoma = system: SK-MEL-5 melanoma
M14 melanoma = system: M14 melanoma
K-562 leukemia = system: K-562 leukemia
SN12C renal = system: SN12C renal
MCF7 breast = system: MCF7 breast
HT29 colon = system: HT29 colon
HOP-62 NSCLC = system: HOP-62 NSCLC
SNB-19 CNS = system: SNB-19 CNS
SK-OV-3 ovarian = system: SK-OV-3 ovarian
SW-620 colon = system: SW-620 colon
CAKI-1 renal = system: CAKI-1 renal
LOX IMVI melanoma = system: LOX IMVI melanoma
IGROV1 ovarian = system: IGROV1 ovarian
OVCAR-3 ovarian = system: OVCAR-3 ovarian
SK-MEL-28 melanoma = system: SK-MEL-28 melanoma
TK-10 renal = system: TK-10 renal
OVCAR-5 ovarian = system: OVCAR-5 ovarian
NCI-H460 lung = system: NCI-H460 lung
UO-31 renal = system: UO-31 renal
T-47D breast = system: T-47D breast
SR leukemia = system: SR leukemia
U251 CNS = system: U251 CNS
UACC-62 melanoma = system: UACC-62 melanoma
BT-549 breast = system: BT-549 breast
NCI-H23 lung = system: NCI-H23 lung
MDA-N = system: MDA-N
DU-145 prostate = system: DU-145 prostate
RPMI-8226 leukemia = system: RPMI-8226 leukemia
HCT-15 colon = system: HCT-15 colon
SK-MEL-2 melanoma = system: SK-MEL-2 melanoma
HL-60(TB) leukemia = system: HL-60(TB) leukemia
RXF 393 renal = system: RXF 393 renal

Measured: TGI

C(/C=N/NC1=NCCCCN1)=N\NC1=NCCCCN1
> 100 µM: SF-539 CNS | A549 NSCLC | COLO 205 colon | OVCAR-4 ovarian | MDA-MB-435 | MALME-3M melanoma | SF-295 CNS | HCC-2998 colon | CCRF-CEM leukemia | OVCAR-8 ovarian | MOLT-4 leukemia | EKVX NSCLC | SF-268 CNS | HCT-116 colon | KM12 colon | MDA-MB-231 breast | NCI/ADR-RES ovarian | PC-3 prostate | NCI-H522 lung | ACHN renal | UACC-257 melanoma | HS 578T breast | 786-0 renal | SNB-75 CNS | NCI-H226 lung | HOP-92 NSCLC | SK-MEL-5 melanoma | M14 melanoma | K-562 leukemia | SN12C renal | MCF7 breast | HT29 colon | HOP-62 NSCLC | SNB-19 CNS | SK-OV-3 ovarian | SW-620 colon | CAKI-1 renal | LOX IMVI melanoma | IGROV1 ovarian | OVCAR-3 ovarian | SK-MEL-28 melanoma | TK-10 renal | OVCAR-5 ovarian | NCI-H460 lung | UO-31 renal | T-47D breast | SR leukemia | U251 CNS | UACC-62 melanoma | BT-549 breast | NCI-H23 lung | MDA-N

Cc1ccc(S(=O)(=O)NC(=O)NC(Cc2ccc(O)cc2)C(=O)O)cc1 (stereo unspecified)
> 100 µM: SF-539 CNS | A549 NSCLC | COLO 205 colon | OVCAR-4 ovarian | DU-145 prostate | MALME-3M melanoma | RPMI-8226 leukemia | SF-295 CNS | HCT-15 colon | CCRF-CEM leukemia | OVCAR-8 ovarian | MOLT-4 leukemia | SF-268 CNS | HCT-116 colon | KM12 colon | MDA-MB-231 breast | NCI/ADR-RES ovarian | PC-3 prostate | NCI-H522 lung | SK-MEL-2 melanoma | UACC-257 melanoma | HS 578T breast | 786-0 renal | SNB-75 CNS | HOP-92 NSCLC | SK-MEL-5 melanoma | M14 melanoma | K-562 leukemia | SN12C renal | HL-60(TB) leukemia | HT29 colon | HOP-62 NSCLC | SNB-19 CNS | SK-OV-3 ovarian | SW-620 colon | LOX IMVI melanoma | IGROV1 ovarian | SK-MEL-28 melanoma | TK-10 renal | OVCAR-5 ovarian | NCI-H460 lung | UO-31 renal | T-47D breast | SR leukemia | U251 CNS | RXF 393 renal | BT-549 breast | NCI-H23 lung | MDA-N
